Assay results from the NIST ThermoML archive (doi:10.1021/acs.jced.8b00120).
± gives the expanded uncertainty stated by the source.

Columns and labels:
[1] = refractive index (Na D-line) (dimensionless); conditions: 298.15 K; 101.33 kPa; Liquid; Standard Abbe refractometry
[2] = 298.15 K; 101.33 kPa; Liquid; Buoyancy - hydrostatic balance

Structure (SMILES)	refractive index [1]	mass density [2]
O [water]	1.3324 ± 0.001	–
CC#N [acetonitrile]	1.3452 ± 0.001	785.712 ± 10 kg/m3
CO [methanol]	1.3279 ± 0.0011	791.814 ± 10 kg/m3
CN(C)C=O [dimethylformamide]	1.4279 ± 0.0011	944.689 ± 10 kg/m3
CC(C)c1ccccc1 [isopropylbenzene]	1.4907 ± 0.0011	864.115 ± 10 kg/m3
CC(C)CO [2-methyl-1-propanol]	1.394 ± 0.0011	801.652 ± 10 kg/m3
CCCCO [butan-1-ol]	1.3975 ± 0.0011	805.881 ± 10 kg/m3
CC(=O)CC(C)C [4-methylpentan-2-one]	1.3964 ± 0.0011	800.589 ± 10 kg/m3
